Key:
Hep 3B2 = assay: Antiproliferative activity against human Hep3B cells assessed as reduction in cell viability incubated for 72 hrs by Cell Titer-Glo assay
[1] = Metabolic stability in human liver microsomes assessed as half life at 1 uM incubated for 60 mins by LC-MS/MS analysis; assay type: ADME, Microsome
[2] = Metabolic stability in human liver microsomes assessed as intrinsic clearance at 1 uM incubated for 60 mins by LC-MS/MS analysis; assay type: ADME, Microsome; conditions: read-out: CLH
[3] = target: Fibroblast growth factor receptor 4 (Homo sapiens, UniProt P22455); assay: Inhibition of human FGFR4 using poly (Glu, Tyr)4:1 as substrate incubated for 20 mins followed by [33P]-ATP addition and measured after 120 mins by radiometric hotspot assay
[4] = Oral bioavailability in Sprague-Dawley rat at 10 mg/kg measured upto 24 hrs by LC-MS/MS analysis; assay type: ADME, organism-based; conditions: in vivo
[5] = Tmax in Sprague-Dawley rat at 10 mg/kg, po measured upto 24 hrs by LC-MS/MS analysis; assay type: ADME, organism-based; conditions: in vivo
[6] = Half life in Sprague-Dawley rat at 10 mg/kg, po measured upto 24 hrs by LC-MS/MS analysis; assay type: ADME, organism-based; conditions: in vivo
[7] = AUClast in Sprague-Dawley rat at 10 mg/kg, po measured upto 24 hrs by LC-MS/MS analysis; assay type: ADME, organism-based; design: route oral, dose 10 mg/kg, time <=24; conditions: in vivo
[8] = Cmax in Sprague-Dawley rat at 1 mg/kg, iv measured upto 24 hrs by LC-MS/MS analysis; assay type: ADME, organism-based; design: route intravenous, dose 1 mg/kg, time <=24; conditions: in vivo
[9] = Tmax in Sprague-Dawley rat at 1 mg/kg, iv measured upto 24 hrs by LC-MS/MS analysis; assay type: ADME, organism-based; conditions: in vivo
[10] = MRTlast in Sprague-Dawley rat at 1 mg/kg, iv measured upto 24 hrs by LC-MS/MS analysis; assay type: ADME, organism-based; conditions: in vivo
[11] = AUClast in Sprague-Dawley rat at 1 mg/kg, iv measured upto 24 hrs by LC-MS/MS analysis; assay type: ADME, organism-based; design: route intravenous, dose 1 mg/kg, time <=24; conditions: in vivo
[12] = Cmax in Sprague-Dawley rat at 10 mg/kg, po measured upto 24 hrs by LC-MS/MS analysis; assay type: ADME, organism-based; design: route oral, dose 10 mg/kg, time <=24; conditions: in vivo
[13] = MRTlast in Sprague-Dawley rat at 10 mg/kg, po measured upto 24 hrs by LC-MS/MS analysis; assay type: ADME, organism-based; conditions: in vivo
[14] = Half life in Sprague-Dawley rat at 1 mg/kg, iv measured upto 24 hrs by LC-MS/MS analysis; assay type: ADME, organism-based; conditions: in vivo

Sequence of Fibroblast growth factor receptor 4 (P22455 whole entry): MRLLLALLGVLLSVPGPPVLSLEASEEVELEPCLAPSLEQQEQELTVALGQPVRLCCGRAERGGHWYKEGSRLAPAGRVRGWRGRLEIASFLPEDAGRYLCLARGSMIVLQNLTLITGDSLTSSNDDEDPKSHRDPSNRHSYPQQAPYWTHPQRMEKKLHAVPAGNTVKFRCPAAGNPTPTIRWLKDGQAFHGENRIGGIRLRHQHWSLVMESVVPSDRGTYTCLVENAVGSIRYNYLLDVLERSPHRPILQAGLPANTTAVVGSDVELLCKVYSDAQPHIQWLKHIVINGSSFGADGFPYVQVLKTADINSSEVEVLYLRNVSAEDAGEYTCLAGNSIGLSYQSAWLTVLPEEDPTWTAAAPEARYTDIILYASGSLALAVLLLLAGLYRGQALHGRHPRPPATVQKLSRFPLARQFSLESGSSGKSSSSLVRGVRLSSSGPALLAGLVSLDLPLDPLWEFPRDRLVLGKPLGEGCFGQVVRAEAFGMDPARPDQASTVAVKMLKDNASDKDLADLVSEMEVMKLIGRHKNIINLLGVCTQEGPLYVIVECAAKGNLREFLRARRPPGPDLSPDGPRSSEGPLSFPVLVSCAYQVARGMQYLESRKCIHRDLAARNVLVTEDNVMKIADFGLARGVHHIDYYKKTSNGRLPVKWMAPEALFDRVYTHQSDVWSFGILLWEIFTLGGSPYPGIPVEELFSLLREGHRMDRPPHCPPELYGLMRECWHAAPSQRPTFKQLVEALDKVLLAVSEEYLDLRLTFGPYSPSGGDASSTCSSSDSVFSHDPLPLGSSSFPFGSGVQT

IC50 [3] [nM]	SMILES	IC50 (Hep 3B2) [nM]	also measured
> 1000	CC#CC(=O)N1CCN(CCCn2cc(-c3cc(OC)cc(OC)c3)c3cnc(NC)nc32)CC1	> 10000	
> 1000	C=CC(=O)N1CCN(CCn2cc(-c3cc(OC)cc(OC)c3)c3cnc(NC)nc32)CC1	> 10000	
> 1000	CNc1ncc2c(-c3cc(OC)cc(OC)c3)noc2n1	> 10000	
> 1000	C=CC(=O)N1CCN(CCn2nc(-c3cc(OC)cc(OC)c3)c3cnc(NC)nc32)CC1	> 10000	

The remaining lines, values behind:

SMILES	IC50 [3] [nM]	IC50 (Hep 3B2) [nM]	also measured
C=CC(=O)Nc1cccc(C)c1Nc1ncc2cc(-c3c(Cl)c(OC)cc(OC)c3Cl)ccc2n1		288	half-life at 1 µM [1]: 46.7 min; microsomal CLint at 1 µM [2]: 74.1 µL/min/mg
C=CS(=O)(=O)Nc1ccccc1Nc1ccc2c(C(=O)c3cc(OC)cc(OC)c3)c[nH]c2n1		1030	
CC#CC(=O)Nc1ccccc1Nc1ccc2c(C(=O)c3cc(OC)cc(OC)c3)c[nH]c2n1		602	
C=CC(=O)Nc1ccccc1Nc1ccc2c(C(=O)c3cc(OC)cc(OC)c3)c[nH]c2n1			bioavailability [4]: 6.65%; Tmax [5]: 60 min; half-life at 1 µM [1]: 62 min; half-life [6]: 463 min; AUC(0-t) at 24 h [7]: 206 ng·h/mL; Cmax [8]: 361 ng/mL; Tmax [9]: 4.98 min; MRT last at 24 h [10]: 46.2 min; AUC(0-t) at 24 h [11]: 277 ng·h/mL; microsomal CLint at 1 µM [2]: 55.9 µL/min/mg; Cmax [12]: 33.9 ng/mL; MRT last at 24 h [13]: 227 min; half-life [14]: 51.6 min
C=CC(=O)N1CCN(CCn2cc(-c3ccc(OC)c(OC)c3)c3cnc(NC)nc32)CC1	> 1000	> 10000	
C=CC(=O)Nc1cccc(C)c1Nc1ccc2c(C(=O)c3cc(OC)cc(OC)c3)c[nH]c2n1		438	
C=CS(=O)(=O)N1CCN(CCCn2cc(-c3cc(OC)cc(OC)c3)c3cnc(NC)nc32)CC1	> 1000	> 10000	
C=CC(=O)NC1CCCCC1Nc1ccc2c(C(=O)c3cc(OC)cc(OC)c3)c[nH]c2n1 (centres undefined)		258	
C=CC(=O)Nc1ccccc1Nc1ncc2c(-c3cc(OC)cc(OC)c3)n[nH]c2n1		4090	
C=CC(=O)N1CCN(CCCn2cc(-c3cc(OC)cc(OC)c3)c3ccc(NC)nc32)CC1		> 10000	

— ChEMBL document CHEMBL4673307, “Pyrrolo[2,3-b]pyridine-3-one derivatives as novel fibroblast growth factor receptor 4 inhibitors for the treatment of hepatocellular carcinoma” (Bioorg Med Chem, 2021)
